# Experimental data reported in US11427615B2, “Peptide compound and application thereof, and composition containing peptide compound” (XDCEXPLORER (SHANGHAI) CO., LTD., priority 2017, dated 2022).
# Starred links: 1 amine or outer side, 2 acyl side, 3 side chain; linkers in the order of their positions; H or OH if unused. Non-standard residues stand in square brackets, D forms with d. Residues, ends and D or L forms follow the SMILES beside them. *: point of attachment. X16 = O=C(CCC(=O)[*:2])[C@H](Cc1ccccc1)N[*:1]; dPhe(2,4-Cl2) = N[C@H](Cc1ccc(Cl)cc1Cl)C(=O)O; PEG8 = NCCOCCOCCOCCOCCOCCOCCOCCOCCC(=O)O; X12 = O=C([C@@H]1Cc2ccccc2N1[*:1])[*:2]; Phe(4-F) = N[C@@H](Cc1ccc(F)cc1)C(=O)O; Phe(4-Me) = Cc1ccc(C[C@H](N)C(=O)O)cc1; Pro(4,4-F2) = O=C(O)[C@@H]1CC(F)(F)CN1; dAla(2-furyl) = N[C@H](Cc1ccco1)C(=O)O; dPhe(4-F) = N[C@H](Cc1ccc(F)cc1)C(=O)O; dPhe(4-I) = N[C@H](Cc1ccc(I)cc1)C(=O)O; Arg(Me) = CNC(=N)NCCC[C@H](N)C(=O)O; Palmitoyl = CCCCCCCCCCCCCCCC(=O)*; Hyp = O=C(O)[C@@H]1C[C@@H](O)CN1; Tic = O=C(O)[C@@H]1Cc2ccccc2CN1; NMeL = CN[C@@H](CC(C)C)C(=O)O; Pip = O=C(O)[C@@H]1CCCCN1; Ac6c = NC1(C(=O)O)CCCCC1; Aze = O=C(O)[C@@H]1CCN1; azaGly = NNC(=O)O; βAla = NCCC(=O)O
# Target: T1, human kiss1 receptor (GPR54) (Homo sapiens, UniProt Q969F8)
# T1 construct: host or cells: NFAT-bla CHO-K1 cells (Chinese hamster ovary), purchased recombinant cell line
# Assay: Kiss1 receptor (GPR54) binding activity of agonists, FRET detection in NFAT-bla CHO-K1 cells
# Format: cell-based
# Conditions: GPR54; measured according to the method of effect Embodiment 1; preliminary data; read-out: Preliminary measurement data (GPR54) EC50
# T1 sequence (Q969F8 whole entry): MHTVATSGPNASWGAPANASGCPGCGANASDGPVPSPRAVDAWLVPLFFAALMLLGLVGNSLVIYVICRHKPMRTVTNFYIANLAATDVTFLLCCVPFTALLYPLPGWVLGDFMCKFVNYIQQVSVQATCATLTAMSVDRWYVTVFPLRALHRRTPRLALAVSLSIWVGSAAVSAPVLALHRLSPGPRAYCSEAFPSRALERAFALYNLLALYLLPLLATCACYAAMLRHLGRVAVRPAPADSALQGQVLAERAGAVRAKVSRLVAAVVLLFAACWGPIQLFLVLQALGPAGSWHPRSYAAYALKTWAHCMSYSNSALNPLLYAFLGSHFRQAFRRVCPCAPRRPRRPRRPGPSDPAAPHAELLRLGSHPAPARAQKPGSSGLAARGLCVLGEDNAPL
row,EC50 [nM],SMILES
1,0.02,"CCCCCCCCCCCCCCCC(=O)NCCOCCOCCOCCOCCOCCOCCOCCOCCC(=O)NCC(=O)NCC(=O)N[C@H](Cc1ccc(O)cc1)C(=O)NC1(C(=O)N[C@@H](CC(N)=O)C(=O)N[C@H](C(=O)N[C@@H](Cc2ccccc2)C(=O)NNC(=O)N[C@@H](CC(C)C)C(=O)N[C@@H](CCCNC(=N)NC)C(=O)N[C@@H](Cc2c[nH]c3ccccc23)C(N)=O)[C@@H](C)O)CCCCC1 [YA-268, Palm-PEG8-G-G-DY-A6c-Asn-Thr-Phe-azaG-Leu-Arg(Me)-Trp-NH2] ({Palmitoyl-PEG8}-GG[dY][Ac6c]NTF[azaGly]L[Arg(Me)]W-NH2)"
2,0.544,"CNC(=N)NCCC[C@H](NC(=O)[C@H](CC(C)C)NC(=O)[C@@H]1CCN1C(=O)[C@H](Cc1ccccc1)NC(=O)[C@@H](NC(=O)[C@H](CC(N)=O)NC(=O)[C@@H]1CCCCN1C(=O)[C@@H](Cc1ccc(O)cc1)NC(C)=O)[C@@H](C)O)C(=O)N[C@@H](Cc1c[nH]c2ccccc12)C(N)=O [YA-194, Ac-D-Tyr-(S-Pip)-Asn-Thr-Phe-Aze-Leu-Arg(Me)-Trp-NH2] (Ac-[dY][Pip]NTF[Aze]L[Arg(Me)]W-NH2)"
3,0.48,"CNC(=N)NCCC[C@H](NC(=O)[C@H](CC(C)C)NC(=O)C1(NC(=O)[C@H](Cc2ccccc2)NC(=O)[C@@H](NC(=O)[C@H](CC(N)=O)NC(=O)[C@@H]2C[C@@H](O)CN2C(=O)[C@@H](Cc2ccc(Cl)cc2Cl)NC(C)=O)[C@@H](C)O)CCCCC1)C(=O)N[C@@H](Cc1c[nH]c2ccccc12)C(N)=O [YA-196, Ac-[D-Phe(2,4-DiCl)]-Hyp-Asn-Thr-Phe-A6c-Leu-Arg (Me)-Trp-NH2] (Ac-[dPhe(2,4-Cl2)][Hyp]NTF[Ac6c]L[Arg(Me)]W-NH2)"
4,0.78,"CNC(=N)NCCC[C@H](NC(=O)[C@H](CC(C)C)NC(=O)C1(NC(=O)[C@H](Cc2ccccc2)NC(=O)[C@@H](NC(=O)[C@H](CC(N)=O)NC(=O)[C@@H]2CC(F)(F)CN2C(=O)[C@@H](Cc2ccc(Cl)cc2Cl)NC(C)=O)[C@@H](C)O)CCCCC1)C(=O)N[C@@H](Cc1c[nH]c2ccccc12)C(N)=O [YA-248, Ac-[D-Phe(2,4-diCl)]-Pro(diF)-Asn-Thr-Phe-A6c-Leu-Arg(Me)-Trp-NH2] (Ac-[dPhe(2,4-Cl2)][Pro(4,4-F2)]NTF[Ac6c]L[Arg(Me)]W-NH2)"
5,0.921,"CNC(=N)NCCC[C@H](NC(=O)[C@H](CC(C)C)NC(=O)NNC(=O)[C@H](Cc1ccccc1)NC(=O)[C@@H](NC(=O)[C@H](CC(N)=O)NC(=O)[C@@H]1C[C@@H](O)CN1C(=O)[C@H](Cc1ccc(C)cc1)NC(C)=O)[C@@H](C)O)C(=O)N[C@@H](Cc1c[nH]c2ccccc12)C(N)=O [YA-74, Ac-Phe(4-Me)-Hyp-Asn-Thr-Phe-azaGly-Leu-Arg(Me)-Trp-NH2] (Ac-[Phe(4-Me)][Hyp]NTF[azaGly]L[Arg(Me)]W-NH2)"
6,1.7,"CNC(=N)NCCC[C@H](NC(=O)[C@H](CC(C)C)NC(=O)[C@@H]1CCN1C(=O)[C@H](Cc1ccccc1)NC(=O)[C@@H](NC(=O)[C@H](CC(N)=O)NC(=O)[C@@H]1C[C@@H](O)CN1C(=O)[C@@H](Cc1ccco1)NC(C)=O)[C@@H](C)O)C(=O)N[C@@H](Cc1c[nH]c2ccccc12)C(N)=O [YA-189, Ac-D-2Fua-Hyp-Asn-Thr-Phe-Aze-Leu-Arg(Me)-Trp-NH2] (Ac-[dAla(2-furyl)][Hyp]NTF[Aze]L[Arg(Me)]W-NH2)"
7,2.79,"CNC(=N)NCCC[C@H](NC(=O)[C@H](CC(C)C)N(C)C(=O)CCNC(=O)[C@H](Cc1ccccc1)NC(=O)[C@@H](NC(=O)[C@H](CC(N)=O)NC(=O)[C@@H]1C[C@@H](O)CN1C(=O)[C@@H](Cc1ccc(O)cc1)NC(C)=O)[C@@H](C)O)C(=O)N[C@@H](Cc1c[nH]c2ccccc12)C(N)=O [YA-82, Ac-(D-Tyr)-Hyp-Asn-Thr-Phe-BetaAla-(NMe-Leu)-Arg(Me)-Trp-NH2] (Ac-[dY][Hyp]NTF[βAla][NMeL][Arg(Me)]W-NH2)"
8,4.4,"CNC(=N)NCCC[C@H](NC(=O)[C@H](CC(C)C)NC(=O)[C@@H]1Cc2ccccc2N1C(=O)[C@H](Cc1ccccc1)NC(=O)[C@@H](NC(=O)[C@H](CC(N)=O)NC(=O)[C@@H]1CC(F)(F)CN1C(=O)[C@@H](Cc1ccco1)NC(C)=O)[C@@H](C)O)C(=O)N[C@@H](Cc1c[nH]c2ccccc12)C(N)=O [YA-223, Ac-[3-(2-furyl)-D-Ala]-DifluoroPro-Asn-Thr-Phe-Ind-Leu-Arg(Me)-Trp-NH2] (Ac-[dAla(2-furyl)][Pro(4,4-F2)]NTF[X12]L[Arg(Me)]W-NH2)"
9,0.048,"CNC(=N)NCCC[C@H](NC(=O)[C@H](CC(C)C)NC(=O)CCC(=O)[C@H](Cc1ccccc1)NC(=O)[C@@H](NC(=O)[C@H](CC(N)=O)NC(=O)[C@@H]1C[C@@H](O)CN1C(=O)[C@@H](Cc1ccc(O)cc1)NC(C)=O)[C@@H](C)O)C(=O)N[C@@H](Cc1c[nH]c2ccccc12)C(N)=O [YA-274, M10 [Ac, D-Tyr45, Hyp46, des47, Thr49, (—CH2CH2CO—)51, Arg(Me)53, Trp54]] (Ac-[dY][Hyp]NT[X16]L[Arg(Me)]W-NH2; C-terminus assumed)"
10,0.032,"CNC(=N)NCCC[C@H](NC(=O)[C@H](CC(C)C)NC(=O)NNC(=O)[C@H](Cc1ccccc1)NC(=O)[C@@H](NC(=O)[C@H](CC(N)=O)NC(=O)[C@@H]1C[C@@H](O)CN1C(=O)[C@@H](Cc1ccc(I)cc1)NC(C)=O)[C@@H](C)O)C(=O)N[C@@H](Cc1c[nH]c2ccccc12)C(N)=O [YA-358, Ac-(D-Phe(4-I))-Hyp-Asn-Thr-Phe-azaGly-Leu-Arg(Me)-Trp-NH2] (Ac-[dPhe(4-I)][Hyp]NTF[azaGly]L[Arg(Me)]W-NH2)"
11,0.048,"CCCCCCCCCCCCCCCC(=O)NCCOCCOCCOCCOCCOCCOCCOCCOCCC(=O)NCC(=O)NCC(=O)N[C@H](Cc1ccc(I)cc1)C(=O)N1C[C@H](O)C[C@H]1C(=O)N[C@@H](CC(N)=O)C(=O)N[C@H](C(=O)N[C@@H](Cc1ccccc1)C(=O)NNC(=O)N[C@@H](CC(C)C)C(=O)N[C@@H](CCCNC(=N)NC)C(=O)N[C@@H](Cc1c[nH]c2ccccc12)C(N)=O)[C@@H](C)O [YA-366, Palm-PEG8-Gly-Gly-(D-Phe(4-I))-Hyp-Asn-Thr-Phe-AzaGly-Leu-Arg(Me)-Trp-NH2] ({Palmitoyl-PEG8}-GG[dPhe(4-I)][Hyp]NTF[azaGly]L[Arg(Me)]W-NH2)"
12,9.6,"CNC(=N)NCCC[C@H](NC(=O)[C@H](CC(C)C)NC(=O)C1(NC(=O)[C@H](Cc2ccccc2)NC(=O)[C@@H](NC(=O)[C@H](CC(N)=O)NC(=O)[C@@H]2CCCCN2C(=O)[C@H](Cc2ccc(F)cc2)NC(C)=O)[C@@H](C)O)CCCCC1)C(=O)N[C@@H](Cc1c[nH]c2ccccc12)C(N)=O [YA-202, Ac-Phe(4-F)-(S-Pip)-Asn-Thr-Phe-A6c-Leu-Arg(Me)-Trp-NH2] (Ac-[Phe(4-F)][Pip]NTF[Ac6c]L[Arg(Me)]W-NH2)"
13,0.028,"CNC(=N)NCCC[C@H](NC(=O)C(CC(C)C)C(=S)NCNC(=O)[C@H](Cc1ccccc1)NC(=O)[C@@H](NC(=O)[C@H](CC(N)=O)NC(=O)[C@@H]1CC(F)(F)CN1C(=O)[C@@H](Cc1ccc(Cl)cc1Cl)NC(C)=O)[C@@H](C)O)C(=O)N[C@@H](Cc1c[nH]c2ccccc12)C(N)=O (single isomer, unassigned) [YA-255, Ac-[D-Phe(2,4-DiCl)]-DiFluorPro-Asn-Thr-Phe-ψ(NHCS) Gly-Leu-Arg(Me)-Trp-NH2]"
14,1.13,"CNC(=N)NCCC[C@H](NC(=O)[C@H](CC(C)C)NC(=O)[C@@H]1CCN1C(=O)[C@H](Cc1ccccc1)NC(=O)[C@@H](NC(=O)[C@H](CC(N)=O)NC(=O)[C@@H]1CCCCN1C(=O)[C@@H](Cc1ccc(F)cc1)NC(C)=O)[C@@H](C)O)C(=O)N[C@@H](Cc1c[nH]c2ccccc12)C(N)=O [YA-211, Ac-[D-Phe(4-F)]-(S-Pip)-Asn-Thr-Phe-Aze-Leu-Arg(Me)-Trp-NH2] (Ac-[dPhe(4-F)][Pip]NTF[Aze]L[Arg(Me)]W-NH2)"
15,6.5,"CNC(=N)NCCC[C@H](NC(=O)[C@H](CC(C)C)NC(=O)C1(NC(=O)[C@H](Cc2ccccc2)NC(=O)[C@@H](NC(=O)[C@H](CC(N)=O)NC(=O)[C@@H]2CC(F)(F)CN2C(=O)[C@@H](Cc2ccco2)NC(C)=O)[C@@H](C)O)CCCCC1)C(=O)N1Cc2ccccc2C[C@H]1C(N)=O [YA-224, Ac-[3-(2-furyl)-D-Ala]-DifluoroPro-Asn-Thr-Phe-A6C-Leu-Arg(Me)-Tic-NH2] (Ac-[dAla(2-furyl)][Pro(4,4-F2)]NTF[Ac6c]L[Arg(Me)][Tic]-NH2)"

# Same assay, conditions: human kiss1 receptor (GPR54), NFAT-bla CHO-K1 cells, FRET; preliminary data; method of effect Embodiment 1; read-out: Preliminary measurement data (GPR54) EC50
row,EC50 [nM],SMILES
1,97.8,"CNC(=N)NCCC[C@H](NC(=O)[C@H](CC(C)C)NC(=O)C1(NC(=O)[C@H](Cc2ccccc2)NC(=O)[C@@H](NC(=O)[C@H](CC(N)=O)NC(=O)[C@@H]2CC(F)(F)CN2C(=O)[C@@H](Cc2ccc(Cl)cc2Cl)NC(C)=O)[C@@H](C)O)CCCCC1)C(=O)N[C@@H](Cc1c[nH]c2ccccc12)C(=O)NC [YA-253, Ac-D-Phe(2,4-DiCl)-DiFluorPro-Asn-Thr-Phe-A6c-Leu-Arg(Me)-Trp-NHMe] (Ac-[dPhe(2,4-Cl2)][Pro(4,4-F2)]NTF[Ac6c]L[Arg(Me)]W-NHMe)"
2,7.95,"CNC(=N)NCCC[C@H](NC(=O)[C@H](CC(C)C)NC(=O)C1(NC(=O)[C@H](Cc2ccccc2)NC(=O)[C@@H](NC(=O)[C@H](CC(N)=O)NC(=O)C2(NC(=O)[C@@H](Cc3ccco3)NC(C)=O)CCCCC2)[C@@H](C)O)CCCCC1)C(=O)N[C@@H](Cc1c[nH]c2ccccc12)C(N)=O [YA-272, Ac-3-(2-furyl)-D-alanine-A6c-Asn-Thr-Phe-A6c-Leu-Arg(Me)-Trp-NH2] (Ac-[dAla(2-furyl)][Ac6c]NTF[Ac6c]L[Arg(Me)]W-NH2)"
3,3.2,"CNC(=N)NCCC[C@H](NC(=O)[C@H](CC(C)C)NC(=O)C1(NC(=O)[C@H](Cc2ccccc2)NC(=O)[C@@H](NC(=O)[C@H](CC(N)=O)NC(=O)C2(NC(=O)[C@@H](Cc3ccc(Cl)cc3Cl)NC(C)=O)CCCCC2)[C@@H](C)O)CCCCC1)C(=O)N[C@@H](Cc1c[nH]c2ccccc12)C(N)=O [YA-259, Ac-D-Phe(2,4-DiCl)-A6c-Asn-Thr-Phe-Abc-Leu-Arg(Me)-Trp-NH2] (Ac-[dPhe(2,4-Cl2)][Ac6c]NTF[Ac6c]L[Arg(Me)]W-NH2)"
